# Data taken from US20250099405A1, “COMPOSITIONS, METHODS, AND DEVELOPMENT OF ARID4B INHIBITORS” (University of Kentucky Research Foundation, priority 2022, published 2025).
# Experiments:
# ERα signaling = assay: qRT-PCR of ERα target genes after E2 treatment; type: cell-based; settings: pre-treatment 5 and 10 μM
# Experimental: The mRNA levels of GREB1, PGR, ARID4B, and MYD88 from MCF7 (A) and MCF7 Y537S cells (B) pre-treated with RWR-18 (0, 5 and 10 μM, 1 h) followed by +E2 treatment (10 nM, 4 h) were analyzed by qRT-PCR. Data are means±SEM from three biological replicate. ***, P<0.001. ns, not significant.
# Consistent with knockout of ARID4B inhibited E2-induced and constitutive expression of ERα target genes, pre-treatment with RWR-18 (5 and 10 μM) abolished the induction of PGR and GREB1 genes by E2 in MCF7 and ZR75-1 cells (FIG. 18).
# [1] = target: T1, ARID4B binding to H3K4me3 (Homo sapiens, UniProt Q4LE39); assay: Histone peptide binding assay; settings: His-ARID4B pre-incubated with compound
# T1 construct: His; made in house; host or cells: Sf9
# T1 sequence (Q4LE39 1-1312): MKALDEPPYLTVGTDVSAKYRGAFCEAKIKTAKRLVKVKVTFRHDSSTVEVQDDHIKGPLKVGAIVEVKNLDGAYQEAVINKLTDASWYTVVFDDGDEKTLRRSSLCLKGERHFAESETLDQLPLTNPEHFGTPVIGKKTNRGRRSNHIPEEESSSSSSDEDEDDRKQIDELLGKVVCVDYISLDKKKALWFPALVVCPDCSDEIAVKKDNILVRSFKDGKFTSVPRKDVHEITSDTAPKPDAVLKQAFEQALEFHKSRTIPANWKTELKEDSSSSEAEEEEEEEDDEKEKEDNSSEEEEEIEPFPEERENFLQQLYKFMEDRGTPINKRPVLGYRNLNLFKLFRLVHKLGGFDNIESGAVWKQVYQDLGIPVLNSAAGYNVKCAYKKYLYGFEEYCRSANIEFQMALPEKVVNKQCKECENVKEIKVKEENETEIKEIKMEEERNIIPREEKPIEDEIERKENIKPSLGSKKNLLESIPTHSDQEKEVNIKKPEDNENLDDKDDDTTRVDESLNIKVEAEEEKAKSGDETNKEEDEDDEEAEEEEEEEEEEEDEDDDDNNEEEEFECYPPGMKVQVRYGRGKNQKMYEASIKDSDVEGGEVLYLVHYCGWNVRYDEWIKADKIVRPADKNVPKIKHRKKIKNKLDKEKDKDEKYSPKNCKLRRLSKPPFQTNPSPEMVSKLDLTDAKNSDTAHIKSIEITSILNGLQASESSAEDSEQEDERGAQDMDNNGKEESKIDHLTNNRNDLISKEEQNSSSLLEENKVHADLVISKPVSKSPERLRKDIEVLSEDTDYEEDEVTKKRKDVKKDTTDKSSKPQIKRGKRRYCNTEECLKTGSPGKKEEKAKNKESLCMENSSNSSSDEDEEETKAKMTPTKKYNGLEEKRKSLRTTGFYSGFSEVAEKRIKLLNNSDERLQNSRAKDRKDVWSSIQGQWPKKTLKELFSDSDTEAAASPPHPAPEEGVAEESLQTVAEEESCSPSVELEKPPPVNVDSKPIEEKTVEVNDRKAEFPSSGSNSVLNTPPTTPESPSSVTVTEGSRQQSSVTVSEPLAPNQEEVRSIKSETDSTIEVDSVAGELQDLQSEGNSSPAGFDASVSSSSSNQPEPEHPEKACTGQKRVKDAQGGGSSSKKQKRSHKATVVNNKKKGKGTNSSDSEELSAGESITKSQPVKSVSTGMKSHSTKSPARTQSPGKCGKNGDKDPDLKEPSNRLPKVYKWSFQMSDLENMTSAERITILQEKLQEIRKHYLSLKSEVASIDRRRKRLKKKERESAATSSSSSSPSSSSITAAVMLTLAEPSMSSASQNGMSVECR
# Experimental: His-ARID4B was pre-incubated with RWR-18 as indicated followed by histone peptide binding assays.
# Histone peptide binding assays were used to determine that ARID4B binds to which methylated lysine. Full-length His-ARID4B and deletion mutants expressed in Sf9 were purified by Ni-NTA affinity resin (FIG. 20A). To determine which methylated lysine ARID4B binds, full-length His-ARID4B was incubated with biotinylated histone H3 peptides tri-methylated at the K4, K9, K27, K36 or K79. The corresponding unmethylated H3 peptides were used as controls ([…]). […] Next, the ARID4B deletion mutants were used to determine domain(s) of ARID4B responsible for binding to H3K4me3. Deletion of Tudor and chromo domains impaired binding to H3K4me3 (FIG. 20C, compare lanes 3, 4, and 7).
# Since RWR-18 targets the chromodomain of ARID4B, which is important for binding to H3K4me3 (FIG. 20), it was tested whether RWR-18 interferes with binding of H3K4me3 using histone peptide binding assays as described above.
# MCF7 xenograft = MCF7 xenograft model; type: in vivo, SCID mice; settings: 25 mg/kg once every two days for 24 days
# Experimental: The effects of RWR18 on tumor growth was determined using MCF7 xenograft model. When tumor in SCID mice reached 150-200 mm^3, mice were randomized to receive vehicle or RWR18 (25 mg/kg) once every two days for 24 days. […] Bar, 5 mm.
# The effects of RWR18 on tumor growth was determined using MCF7 xenograft model. When tumor in SCID mice reaches 150-200 mm^3, mice were randomized to receive vehicle or RWR18 (25 mg/kg) once every two days for 24 days.
# The effects of RWR18 on tumor growth was determined using MCF7 xenograft model. When tumor in SCID mice reached 150-200 mm^3, mice were randomized to receive vehicle or RWR18 (25 mg/kg) once every two days for 24 days.
smiles,measurement,setting,value
O=C(COc1ccc(OCc2ccccc2)cc1)NCCCN1CCOCC1 [RWR-18],levels of ARID4B or MYD88 mRNA,ERα signaling,not affected
same,induction of PGR and GREB1 genes by E2,ERα signaling; MCF7 and ZR75-1 cells,abolished
same,binding of ARID4B to H3K4me3,[1],inhibited
same,tumor growth,MCF7 xenograft,inhibited tumor growth
same,percentage of apoptotic cells in tumors,MCF7 xenograft; versus vehicle,increases
